In PubChem BioAssay (NCI):
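Compound exposure: 48 hours, 5 concentrations, 96-well plates. GI50 marks 50% less growth. At the TGI there is no net growth.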

Key:
Assay in all cases: growth of human tumour cells (NCI), 48 h
[1] = system: SNB-75 CNS
[2] = system: CCRF-CEM leukemia
[3] = system: PC-3 prostate
[4] = system: KM12 colon
[5] = system: SK-MEL-28 melanoma
[6] = system: TK-10 renal
[7] = system: SF-295 CNS
[8] = system: MOLT-4 leukemia
[9] = system: RPMI-8226 leukemia
[10] = system: MALME-3M melanoma
[11] = system: COLO 205 colon
[12] = system: CAKI-1 renal
[13] = system: SF-268 CNS
[14] = system: MDA-MB-231 breast
[15] = system: BT-549 breast
[16] = system: DU-145 prostate
[17] = system: SN12C renal
[18] = system: IGROV1 ovarian
[19] = system: NCI-H460 lung
[20] = system: MCF7 breast
[21] = system: NCI-H522 lung
[22] = system: A498 renal
[23] = system: OVCAR-3 ovarian
[24] = system: SK-MEL-5 melanoma
[25] = system: U251 CNS
[26] = system: NCI/ADR-RES ovarian
[27] = system: HCC-2998 colon
[28] = system: NCI-H226 lung
[29] = system: NCI-H23 lung
[30] = system: LOX IMVI melanoma
[31] = system: K-562 leukemia
[32] = system: UACC-257 melanoma
[33] = system: HS 578T breast
[34] = system: A549 NSCLC
[35] = system: RXF 393 renal
[36] = system: HCT-116 colon
[37] = system: SR leukemia
[38] = system: SF-539 CNS
[39] = system: ACHN renal
[40] = system: HL-60(TB) leukemia
[41] = system: 786-0 renal
[42] = system: UO-31 renal
[43] = system: M14 melanoma
[44] = system: SK-OV-3 ovarian
[45] = system: T-47D breast
[46] = system: OVCAR-8 ovarian
[47] = system: OVCAR-5 ovarian
[48] = system: OVCAR-4 ovarian
[49] = system: SNB-19 CNS
[50] = system: HCT-15 colon
[51] = system: UACC-62 melanoma
[52] = system: MDA-MB-435
[53] = system: EKVX NSCLC
[54] = system: HOP-92 NSCLC
[55] = system: HOP-62 NSCLC
[56] = system: HT29 colon
[57] = system: SW-620 colon

Work on `CN(c1ccc(Cl)c(Cl)c1)c1cnc2cc(N)cc(N)c2n1` yielded a GI50 [1] of 3.34 µM, a TGI [1] of 9.57 µM and a GI50 [2] of 2.64 µM. It also gave a TGI [2] of 8.7 µM, a GI50 [3] of 4.15 µM and a TGI [3] of 18.1 µM. For the same compound, the GI50 [4] was 7.2 µM, the TGI [4] was 25.8 µM and the GI50 [5] was 2.98 µM. For the same compound, the TGI [5] was 8.06 µM, the GI50 [6] was 13.2 µM and the TGI [6] was 27.7 µM. It also gave a GI50 [7] of 3.58 µM, a TGI [7] of 12.4 µM and a GI50 [8] of 3.81 µM. The TGI [8] was greater than 100 µM, the GI50 [9] was 3.65 µM and the TGI [9] was 26 µM. For the same compound, the GI50 [10] was 2.19 µM, the TGI [10] was 4.28 µM and the GI50 [11] was 1.79 µM. It also gave a TGI [11] of 3.47 µM, a GI50 [12] of 4.08 µM and a TGI [12] of 17.6 µM. The GI50 [13] was 4.62 µM, the TGI [13] was 25 µM and the GI50 [14] was 3.37 µM. It also gave a TGI [14] of 15.4 µM, a GI50 [15] of 2.73 µM and a TGI [15] of 6.56 µM. The GI50 [16] was 2.74 µM, the TGI [16] was 7.34 µM and the GI50 [17] was 1.75 µM. It also gave a TGI [17] of 3.27 µM, a GI50 [18] of 5.27 µM and a TGI [18] of 60.2 µM. For the same compound, the GI50 [19] was 14.2 µM, the TGI [19] was 52.1 µM and the GI50 [20] was 2.03 µM. It also gave a TGI [20] of 4.93 µM, a GI50 [21] of 2.58 µM and a TGI [21] of 6.5 µM. It also gave a GI50 [22] of 17.6 µM, a TGI [22] of 32.3 µM and a GI50 [23] of 2.36 µM. For the same compound, the TGI [23] was 10.9 µM, the GI50 [24] was 1.96 µM and the TGI [24] was 3.71 µM. The GI50 [25] was 2.62 µM, the TGI [25] was 6.86 µM and the GI50 [26] was 10.6 µM. The TGI [26] was 30.1 µM, the GI50 [27] was 11.5 µM and the TGI [27] was 24.5 µM. It also gave a GI50 [28] of 15.1 µM, a TGI [28] of 33.9 µM and a GI50 [29] of 2.11 µM. For the same compound, the TGI [29] was 4.47 µM, the GI50 [30] was 1.84 µM and the TGI [30] was 3.74 µM. The GI50 [31] was 4.21 µM, the TGI [31] was greater than 100 µM and the GI50 [32] was 1.81 µM. For the same compound, the TGI [32] was 3.59 µM, the GI50 [33] was 2.66 µM and the TGI [33] was 7.36 µM. For the same compound, the GI50 [34] was 13.7 µM, the TGI [34] was 45.4 µM and the GI50 [35] was 4.19 µM. For the same compound, the TGI [35] was 40.3 µM, the GI50 [36] was 2.31 µM and the TGI [36] was 4.9 µM. It also gave a GI50 [37] of 3.77 µM, a TGI [37] greater than 100 µM and a GI50 [38] of 4.71 µM. The TGI [38] was 17 µM, the GI50 [39] was 4.64 µM and the TGI [39] was 16 µM. For the same compound, the GI50 [40] was 2.26 µM, the TGI [40] was 7.56 µM and the GI50 [41] was 12.7 µM. For the same compound, the TGI [41] was 26 µM, the GI50 [42] was 3.4 µM and the TGI [42] was 16.6 µM. It also gave a GI50 [43] of 1.91 µM, a TGI [43] of 3.44 µM and a GI50 [44] of 13.6 µM. The TGI [44] was 37.8 µM, the GI50 [45] was 2.45 µM and the TGI [45] was 8.95 µM. The GI50 [46] was 3.48 µM, the TGI [46] was 15.4 µM and the GI50 [47] was 15.7 µM. For the same compound, the TGI [47] was 30.5 µM, the GI50 [48] was 1.71 µM and the TGI [48] was 3.32 µM. For the same compound, the GI50 [49] was 3.75 µM, the TGI [49] was 15.1 µM and the GI50 [50] was 4.57 µM. The TGI [50] was 20.1 µM, the GI50 [51] was 2.25 µM and the TGI [51] was 4.43 µM. It also gave a GI50 [52] of 1.91 µM, a TGI [52] of 3.99 µM and a GI50 [53] of 3.63 µM. For the same compound, the TGI [53] was 11.2 µM, the GI50 [54] was 13.1 µM and the TGI [54] was 33.4 µM. It also gave a GI50 [55] of 2.91 µM, a TGI [55] of 8.07 µM and a GI50 [56] of 4.07 µM. It also gave a TGI [56] of 22 µM, a GI50 [57] of 2.04 µM and a TGI [57] of 4.34 µM.
